Measured values reported in PubChem BioAssay (NCI).
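The compound was tested at five concentrations on cells cultured in 96-well plates, with a 48-hour exposure period. Here, GI50 denotes the concentration required for 50% inhibition of growth. TGI denotes the concentration required for complete inhibition of growth.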

Columns and labels:
Assay in all cases: NCI tumour cell line growth inhibition, 48 h
K-562 leukemia = system: K-562 leukemia
SNB-75 CNS = system: SNB-75 CNS
PC-3 prostate = system: PC-3 prostate
HOP-62 NSCLC = system: HOP-62 NSCLC
UACC-62 melanoma = system: UACC-62 melanoma
MDA-MB-435 = system: MDA-MB-435
SF-295 CNS = system: SF-295 CNS
A549 NSCLC = system: A549 NSCLC

Row | SMILES | GI50 (K-562 leukemia) [µM] | TGI (K-562 leukemia) [µM] | GI50 (SNB-75 CNS) [µM] | TGI (SNB-75 CNS) [µM] | GI50 (PC-3 prostate) [nM] | TGI (PC-3 prostate) [µM] | GI50 (HOP-62 NSCLC) [nM] | TGI (HOP-62 NSCLC) [µM] | GI50 (UACC-62 melanoma) [nM] | TGI (UACC-62 melanoma) [µM] | GI50 (MDA-MB-435) [µM] | TGI (MDA-MB-435) [µM] | GI50 (SF-295 CNS) [nM] | TGI (SF-295 CNS) [µM] | GI50 (A549 NSCLC) [µM] | TGI (A549 NSCLC) [µM]
1 | Cc1ccc(Sc2sc(-c3ccccc3)nc2[P+](c2ccccc2)(c2ccccc2)c2ccccc2)cc1 | 0.257 | 1.54 | 0.21 | 0.759 | 283 | 1.18 | 296 | 1.18 | 317 | 1.25 | 0.291 | 0.882 | 243 | 0.722 | – | –
2 | COc1ccc(N(C)c2c3ccccc3nc3[nH]c4ccccc4c23)cc1 | 0.558 | 16.3 | 5.19 | 23.6 | 424 | 2.63 | 407 | 1.79 | 875 | 2.64 | 1.12 | 3.22 | 387 | 2.59 | 0.724 | 9.19
3 | COc1ccccc1/C=C/C(=O)/C=C/c1ccccc1OC | 2.83 | 12.4 | 2.23 | 11.6 | 2260 | 7.03 | 3000 | 6.92 | 1650 | 3.41 | 2.04 | 5.61 | 3740 | 10.5 | 2.35 | 7
4 | CCOC(=O)Nc1nc2c(C)cccc2s1 | 34.7 | > 100 | 30.9 | > 100 | 48900 | > 100 | > 100000 | > 100 | 36000 | > 100 | 48.9 | > 100 | 27200 | > 100 | 43.9 | > 100
5 | Cc1cc(N(CCCl)CCCl)ccc1/C=N/NC(=O)Cc1cc(=O)oc2cc(O)ccc12 | – | 66.1 | – | > 100 | – | 27.5 | – | 39.7 | – | 13.2 | – | 38.5 | – | 50.8 | – | 42.2
6 | COc1ccc2c(c1)/C(=C/c1cc(OC)c(OC)c(OC)c1)C(=O)N2C | 1.12 | > 46.5 | 2.29 | > 21.4 | 2920 | > 100 | 4630 | 97.6 | 2370 | > 24 | – | – | 2780 | > 100 | 3.64 | > 67.1
7 | NC1CCC(N[C@@H]2C[C@H]2c2ccccc2)CC1 (stereo partly drawn) | 29.9 | > 100 | 8.89 | > 100 | 70800 | > 100 | 95400 | > 100 | 33600 | > 100 | 48.4 | > 100 | > 100000 | > 100 | > 100 | > 100
8 | COC1=C(Br)C(=O)C2=C(C1=O)C1C3=C(C(=O)C=CC3=O)C2c2ccccc21 (stereo not drawn) | 4.66 | > 100 | 19.4 | 64.4 | 4350 | 25.6 | 25900 | 47.6 | 11200 | 27.8 | 18.2 | 36.3 | 24100 | 48.9 | 42.1 | > 100
9 | CCOC(=O)c1cc(C(=O)c2cc(OC)c(OC)c(OC)c2)n2ccccc12 | 0.0501 | > 100 | 0.0461 | 21.5 | 105 | > 100 | 241 | > 67.9 | 43.9 | > 100 | < 0.0182 | 0.205 | 55.8 | 14.6 | 0.134 | > 100
10 | O=C(Nc1ccccc1)Nc1cccc(Oc2nnc(Cl)c3ccccc23)c1 | 6.21 | > 25 | 1.08 | 5.9 | 3260 | 10.6 | 2520 | 6.54 | 6840 | > 25 | 7.54 | > 25 | 2070 | 5.63 | 3.47 | 18.4
11 | C=C1C(=O)O[C@H]2[C@H]1CC/C(COC(=O)c1ccccc1)=C\CC[C@@]1(C)O[C@@H]21 | 0.451 | 13 | 5.7 | 18.7 | 1800 | 4.34 | 2960 | 14.1 | 1440 | 3.13 | 1.34 | 3.24 | 3830 | 16 | 3.33 | 13
12 | Nc1ncnc2c1cnn2Cc1ccc(Cl)cc1 | – | > 100 | – | > 100 | – | > 100 | > 100000 | > 100 | > 100000 | > 100 | – | > 100 | – | > 100 | – | > 100
13 | CC(C)c1ccc(NC(=S)NC(=O)c2ccccc2)cc1 | – | > 100 | – | – | – | > 100 | – | > 100 | – | 30.7 | – | 28.1 | – | 32.5 | – | > 100
14 | Clc1ccc(Nc2ccnc(NCCCNc3ccnc4cc(Cl)ccc34)n2)cc1 | – | – | 1.23 | 2.5 | 1580 | 3.13 | 1480 | 2.94 | – | – | – | – | 1550 | 2.96 | 1.73 | 3.35
15 | COc1cc(OC)c(C(=O)/C=C/c2cccc(OC(C)=O)c2)cc1CC=C(C)C | 8.56 | > 50 | 4.68 | 11.8 | 9400 | 44 | 10400 | 19.6 | – | – | 5.67 | 31.1 | 11900 | > 50 | 15.2 | > 50
16 | N#C/C(=C\c1ccc(Br)cc1)n1nnc2ccccc21 | 0.235 | > 19.7 | – | – | 470 | 2.3 | 1920 | 10.5 | 358 | 1.59 | 0.191 | 0.438 | 1180 | 8.9 | 0.808 | 15
17 | COc1ccc(N(/C=C/C(=O)C(F)(F)F)CC(=O)c2ccc(Cl)c(Cl)c2)cc1 | 4.07 | > 100 | – | – | 8330 | 28.3 | 16900 | 30.9 | 8750 | 22.8 | 12.1 | 25.4 | 14500 | 28.6 | 17.7 | 68
18 | Nc1nc(-c2cccc([N+](=O)[O-])c2)cc(-c2cc(-c3cccc([N+](=O)[O-])c3)nc(N)n2)n1 | – | > 100 | – | – | – | > 100 | – | > 100 | – | > 100 | – | > 100 | – | > 100 | – | > 100
19 | COc1cc2c(cc1OCCCCOc1ccc(-c3nc4ccccc4s3)cc1)N=C[C@@H]1CCCN1C2=O | 0.301 | 4.91 | 1.26 | 2.63 | 630 | 2.11 | 745 | 2.14 | 1140 | 2.69 | – | – | 1220 | 8.81 | 2.8 | 8.15
20 | CN(C)CCCn1c2nc(=O)[nH]c(=O)c-2nc2cc(Cl)c(Cl)cc21 | 3.43 | 15.3 | 18 | 32.5 | 2670 | 8.8 | 4140 | 15.9 | 4220 | 14.9 | 2.14 | 5.2 | – | – | 4.02 | 16.3
21 | N#Cc1ccc2c(c1)C(=O)c1c-2n(CCCN)c(=O)c2cc([N+](=O)[O-])ccc12 | 0.185 | 3.97 | 0.288 | 1.24 | 317 | 1.95 | 259 | 1.79 | 109 | 1.39 | – | – | 38.2 | 1.49 | 0.223 | 2.18
22 | O=C(O)C1CCCCC1c1c2ccc(=O)cc-2oc2cc(O)ccc12 (stereo not drawn) | – | > 100 | – | 72.1 | – | > 100 | – | – | – | > 100 | – | 49.3 | – | > 100 | – | > 100
23 | OCc1ccc(N(CCN2CCCC2)Cc2ccc(F)cc2)cc1Cl | 16.2 | 40.4 | 12.5 | 35.3 | 15600 | 37 | 17900 | 42.1 | 13900 | 29.1 | 15.9 | 32.8 | – | – | 6.5 | 27.9
24 | O=C1CS/C(=N\S(=O)(=O)c2ccc(N3N=C4c5ccccc5CC4C3c3ccc(Cl)cc3)cc2)N1c1ccccc1 (stereo not drawn) | 18.7 | 40.3 | – | – | 22600 | 58.6 | 56800 | > 100 | 30100 | 77.3 | 30.6 | 88.8 | 35800 | 98.7 | 24.2 | 65.8
25 | O=C(COc1cccc(/C=C2\CSc3ccccc3C2=O)c1)c1ccc(Cl)cc1 | – | – | 5.04 | 22.4 | 2010 | 5.25 | 2150 | 6.12 | 1650 | 3.24 | 1.64 | 3.44 | 1710 | 3.44 | 11.8 | 65.6
26 | O=[N+]([O-])c1ccc2nc3ccccc3cc2c1 | – | 8.79 | – | 6.53 | – | 10.2 | – | 6.16 | – | 6.27 | – | 3.76 | – | – | – | 8.95
